Values after ≈ are worked out from the molar mass of the structure shown.
What was measured:
Escherichia coli [1] = test: Antimicrobial activity against fluoroquinolone-susceptible Escherichia coli PS5 harboring GyrA S83L mutant gene by Etest; type: functional
Escherichia coli [2] = test: Antimicrobial activity against fluoroquinolone-resistant Escherichia coli NorE5 harboring GyrA S83L mutant, ParC S80R mutant, truncated SoxR and constitutively active SoxS by Etest; type: functional

Compound	MIC (Escherichia coli [1]) [mg/L]	MIC (Escherichia coli [2]) [mg/L]
NCC[C@H](O)C(=O)N[C@@H]1C[C@H](N)[C@@H](O[C@H]2O[C@H](CN)[C@@H](O)[C@H](O)[C@H]2O)[C@H](O)[C@H]1O[C@H]1O[C@H](CO)[C@@H](O)[C@H](N)[C@H]1O [AMIKACIN]	12 (≈ 20.5 µM)	12 (≈ 20.5 µM)
CC1(C)S[C@@H]2[C@H](NC(=O)[C@H](N)c3ccc(O)cc3)C(=O)N2[C@H]1C(=O)O [AMOXICILLIN]	48 (≈ 131 µM)	> 256
O=C(N[C@H](CO)[C@H](O)c1ccc([N+](=O)[O-])cc1)C(Cl)Cl [CHLORAMPHENICOL]	8 (≈ 24.8 µM)	64 (≈ 198 µM)
CC[C@H]1OC(=O)[C@H](C)[C@@H](O[C@H]2C[C@@](C)(OC)[C@@H](O)[C@H](C)O2)[C@H](C)[C@@H](O[C@@H]2O[C@H](C)C[C@H](N(C)C)[C@H]2O)[C@](C)(O)C[C@@H](C)C(=O)[C@H](C)[C@@H](O)[C@]1(C)O [ERYTHROMYCIN]	64 (≈ 87.2 µM)	> 256
CCn1cc(C(=O)O)c(=O)c2ccc(C)nc21 [NALIDIXIC ACID]	1020 (≈ 4410 µM)	2050 (≈ 8820 µM)
CCn1cc(C(=O)O)c(=O)c2cc(F)c(N3CCNCC3)cc21 [NORFLOXACIN]	0.5 (≈ 1.57 µM)	32 (≈ 100 µM)
CN(C)[C@@H]1C(O)=C(C(N)=O)C(=O)[C@@]2(O)C(O)=C3C(=O)c4c(O)cccc4[C@@](C)(O)[C@H]3C[C@@H]12 [TETRACYCLINE]	2 (≈ 4.5 µM)	8 (≈ 18 µM)
COc1cc(Cc2cnc(N)nc2N)cc(OC)c1OC [TRIMETHOPRIM]	0.5 (≈ 1.72 µM)	8 (≈ 27.6 µM)
